Measured values taken from US9309276B2, “Synthetic lipid A derivative” (University of Georgia Research Foundation, Inc., priority 2007, dated 2016).
Read-outs that look alike come from different tables or passages of the source.

Legend:
Format in all cases: cell-based
RAW 264.7 γNO(−) cells = assay: Cytokine induction and ELISAs in mouse macrophages (RAW 264.7 γNO(−) cells); conditions: for EC50: Example II, ELISA, best-fit value; for EC50 / TNF-α and IFN-β production, dose response (in words): supernatant, 5.5 h; for TNF-α and IFN-β production, dose response (in words): wide range of concentrations
Experimental: Mouse macrophages (RAW 264.7 γNO(−) cells) were exposed over a wide range of concentrations to compounds 1-5 and E. coli 055:B5 LPS. After 5.5 hours, the supernatants were harvested and examined for mouse TNF-α and IFN-β using a commercial and in-house developed capture ELISA assay, respectively. Potencies (EC50, concentration producing 50% activity) and efficacies (maximal level of production) were determined by fitting the dose-response curves to a logistic equation using PRISM software. […] It has also been shown that removal of the KDO moieties by mild acidic treatment reduces cellular responses (Demchenko et al., J. Am. Chem. Soc. 2003, 125, 6103-6112).
Having established the EC50 values of TNF-α and IFN-β secretion by compounds 1-5 and E. coli 055:B5 LPS, attention was focused on IL-6, IP-10, RANTES, and IL-1β responses. Thus, the previously harvested supernatants were analyzed for these cytokines using capture ELISA assays (FIG. 4, Table 1). For IL-6, IP-10, and RANTES, a short incubation time of 5.5 hrs was sufficient for detection. To achieve significant IL-1β secretion, the incubation had to be extended to 24 hrs. […] IL-1β is expressed as a pro-protein (pro-IL-1β), which is cleaved by caspase-1 into its active form (IL-1β), which is then secreted. Indeed, analyzing IL-1β of the cell lysates by Western blotting confirmed that it was present as a pro-protein (data not shown). TNF-α is also produced as a pro-protein, which is proteolitically cleaved by tumor necrosis factor-α converting enzyme (TACE) (Skotnicki and Levin, Annu. Rep. Med. Chem. 2003, 38, 153-162; Duffy et al., Thromb. Haemost. 2003, 89, 622-631). […] Furthermore, for each of the synthetic compounds and LPS, EC50 values of secreted TNF-α and intracellular pro-IL-1β were very similar. However, EC50 values for secreted mature IL-1β were larger by as much as 100-fold.
RAW 264.7 γNO(−) cells were plated on the day of the exposure assay as 2×10^5 cells/well in 96-well tissue culture plates (Nunc). Cells were incubated with different stimuli for 5.5 and 24 hours in replicates of five. Culture supernatants were then collected, pooled, and stored frozen (−80° C.) until assayed for cytokine production. After removal of the supernatant, cells were lysed by adding PBS containing Tween 20 (0.01%) and BSA (1%) in the same volume as that of the supernatant and sonicating for 5 min. The cell lysates were pooled and stored frozen (−80° C.) until assayed for cytokine production.
All cytokine ELISAs were performed in 96-well MaxiSorp plates (Nunc). Cytokine DuoSet ELISA Development Kits (R&D Systems) were used for the cytokine quantification of mouse TNF-α, IL-6, IP-10, RANTES, and IL-1β according to the manufacturer's instructions. The absorbance was measured at 450 nm with wavelength correction set to 540 nm using a microplate reader (BMG Labtech). Concentrations of IFN-β in culture supernatants were determined as follows. ELISA MaxiSorp plates were coated with rabbit polyclonal antibody against mouse IFN-β (PBL Biomedical Laboratories). IFN-β in standards and samples was allowed to bind to the immobilized antibody. Rat anti-mouse IFN-β antibody (USBiological) was then added, producing an antibody-antigen-antibody “sandwich”. Next, horseradish peroxidase (HRP) conjugated goat anti-rat IgG (H+L) antibody (Pierce) and a chromogenic substrate for HRP 3,3′,5,5′-tetramethylbenzidine (TMB; Pierce) were added. After the reaction was stopped, the absorbance was measured at 450 nm with wavelength correction set to 540 nm. All cytokine values are presented as the means±SD of triplicate measurements, with each experiment being repeated three times.
Concentration-response data were analyzed using nonlinear least-squares curve fitting in Prism (GraphPad Software, Inc.). […] The Hillslope was set at 1 to be able to compare the EC50 values of the different inducers. […]

mouse TLR2 = target: T1, mouse TLR2 (Mus musculus, UniProt Q9QUN7); assay: NF-κB activation in HEK 293T cells stably transfected with mouse TLR2; conditions: 103/104 at 0.1, 1 and 10 μg mL−1; Pam3CysSK4 1 μg mL−1; 4 h
T1 construct: host or cells: HEK 293T
Experimental: (§1) Induction of NF-κB activation was determined in triplicate cultures of HEK 293T cells stably transfected with human or mouse (a) TLR4/MD2/CD14 and (b) TLR2 and transiently transfected with pELAM-Luc and pRL-TK plasmids. Forty-four h post-transfection, cells were treated with (B) E. coli LPS (10 ng mL^−1), (C) Pam3CysSK4 (1 μg mL^−1), (D, E and F) 103 (0.1, 1 and 10 μg mL^−1, respectively), (G, H and I) 104 (0.1, 1 and 10 μg mL^−1, respectively) or (A) were left untreated (control). Forty-eight h post-transfection, NF-κB activation was determined by firefly luciferase activity relative to Renilla luciferase activity. n.a. indicates not analyzed.
(§2) To examine the ability of the synthetic compounds to induce activation of NF-κB, HEK 293T cells were employed that were stably transfected with various immune receptors and transiently transfected with a plasmid containing the reporter gene pELAM-Luc (NF-κB-dependent firefly luciferase reporter vector) and a plasmid containing the control gene pRL-TK (Renilla luciferase control reporter vector) (FIG. 11). […] Although compound 104 is a weak activator of mouse TLR4, it could not induce the secretion of cytokines.
(§3) The day before transfection, HEK 293T wild type cells and HEK 293T cells stably transfected with human and murine TLR4/MD2/CD14 and human and murine TLR2 were plated in 96-well tissue culture plates (16,000 cells/well). The next day, cells were transiently transfected using PolyFect Transfection Reagent (Qiagen) with expression plasmids pELAM-Luc (NF-κB-dependent firefly luciferase reporter plasmid, 50 ng/well) (Chow et al., J. Biol. Chem., 1999, 274, 10689-10692) and pRL-TK (Renilla luciferase control reporter vector, 1 ng/well; Promega) as an internal control to normalize experimental variations. […] The luciferase activity was measured using the Dual-Luciferase Reporter Assay System (Promega) according to the manufacturer's instructions and a combination luminometer/fluorometer microplate reader (BMG Labtech). […]

human TLR2 = target: T2, human TLR2 (Homo sapiens, UniProt O60603); assay: NF-κB activation in HEK 293T cells stably transfected with human TLR2; conditions: 103/104 at 0.1, 1 and 10 μg mL−1; Pam3CysSK4 1 μg mL−1; 4 h
T2 construct: host or cells: HEK 293T
Experimental: as §1, §2, §3

[1] = at the highest concentration tested

T1 sequence (Q9QUN7 25-784): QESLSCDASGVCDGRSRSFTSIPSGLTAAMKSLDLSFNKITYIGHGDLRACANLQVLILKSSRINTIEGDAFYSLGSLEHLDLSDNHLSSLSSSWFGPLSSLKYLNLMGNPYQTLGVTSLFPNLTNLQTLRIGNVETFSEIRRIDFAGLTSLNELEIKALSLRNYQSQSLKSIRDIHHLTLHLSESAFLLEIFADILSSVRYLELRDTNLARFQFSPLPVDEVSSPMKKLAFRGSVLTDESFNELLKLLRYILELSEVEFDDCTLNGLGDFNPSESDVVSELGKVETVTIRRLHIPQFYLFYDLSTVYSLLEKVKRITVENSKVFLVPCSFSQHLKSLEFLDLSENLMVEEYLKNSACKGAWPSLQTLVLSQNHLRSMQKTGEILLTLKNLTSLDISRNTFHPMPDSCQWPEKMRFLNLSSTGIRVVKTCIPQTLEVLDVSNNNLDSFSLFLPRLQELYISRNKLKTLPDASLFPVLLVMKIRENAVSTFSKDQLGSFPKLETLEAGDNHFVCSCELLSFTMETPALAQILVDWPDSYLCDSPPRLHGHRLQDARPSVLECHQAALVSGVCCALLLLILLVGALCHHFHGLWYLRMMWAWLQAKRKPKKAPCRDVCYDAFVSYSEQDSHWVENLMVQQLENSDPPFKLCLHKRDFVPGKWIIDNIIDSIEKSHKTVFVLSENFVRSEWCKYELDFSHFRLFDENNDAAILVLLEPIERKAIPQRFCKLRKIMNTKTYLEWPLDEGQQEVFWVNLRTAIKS
T2 sequence (O60603 21-784): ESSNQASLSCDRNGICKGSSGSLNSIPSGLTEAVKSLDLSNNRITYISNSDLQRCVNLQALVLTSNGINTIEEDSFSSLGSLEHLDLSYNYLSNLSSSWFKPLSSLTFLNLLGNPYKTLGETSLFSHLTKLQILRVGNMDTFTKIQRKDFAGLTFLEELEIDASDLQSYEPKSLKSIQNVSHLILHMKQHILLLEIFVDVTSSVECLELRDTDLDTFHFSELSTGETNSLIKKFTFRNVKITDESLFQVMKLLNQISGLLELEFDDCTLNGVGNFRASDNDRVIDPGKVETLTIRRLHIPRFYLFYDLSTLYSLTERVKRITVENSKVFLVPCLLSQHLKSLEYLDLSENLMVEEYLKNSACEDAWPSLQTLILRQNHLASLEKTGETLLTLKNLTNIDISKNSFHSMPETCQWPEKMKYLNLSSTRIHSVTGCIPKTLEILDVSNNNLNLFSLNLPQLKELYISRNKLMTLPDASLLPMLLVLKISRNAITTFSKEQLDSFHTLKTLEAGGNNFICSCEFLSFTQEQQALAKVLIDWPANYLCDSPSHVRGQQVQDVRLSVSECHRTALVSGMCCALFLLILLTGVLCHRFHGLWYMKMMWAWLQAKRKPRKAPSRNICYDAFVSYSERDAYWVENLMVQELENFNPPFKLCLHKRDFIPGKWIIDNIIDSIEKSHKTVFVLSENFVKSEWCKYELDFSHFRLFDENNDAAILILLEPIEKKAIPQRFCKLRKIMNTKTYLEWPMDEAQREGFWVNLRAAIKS

Row | Molecule | EC50 (RAW 264.7 γNO(−) cells; read-out: EC50 IFN-β) [nM] | EC50 (RAW 264.7 γNO(−) cells; read-out: EC50 TNF-α) [nM] | TNF-α and IFN-β production, dose response (in words) (RAW 264.7 γNO(−) cells) | also measured
1 | 3-O—[(R)-3-Hydroxy-dodecanoyl]-2-deoxy-2-[(R)-3-dodecanoyloxy-tetradecanoylamino]-(R)-D-glucopyranosyl-(1→6)-2-[(R)-3-hydroxy-dodecanoylamino]-3-O—[(R)-3-dodecanoyloxy-dodecanoyl]-2-deoxy-α-D-glucopyranoside 1,4′-bisphosphate [lipid A 51] | 4 | 1.5 |  | 
2 | CCCCCCCCCCCCCCCC(=O)O[C@H](CCCCCCCCCCC)CC(=O)N[C@H]1[C@@H](OP(=O)(O)O)O[C@H](CO[C@@H]2O[C@H](CO)[C@@H](OP(=O)(O)O)[C@H](OC(=O)C[C@@H](CCCCCCCCCCC)OC(=O)CCCCCCCCCCCCC)[C@H]2NC(=O)C[C@@H](CCCCCCCCCCC)OC(=O)CCCCCCCCCCC)[C@@H](O)[C@@H]1OC(=O)C[C@H](O)CCCCCCCCCCC [Lipid A 3, 6-O-{2-Deoxy-2-[(R)-3-dodecanoyloxy-tetradecanoylamino]-3-O—[(R)-3-tetradecanoyloxy-tetradecanoyl]-β-D-glucopyranosyl}-2-deoxy-2-[(R)-3-hexadecanoyl-tetradecanoylamino]-3-O—[(R)-3-hydroxy-tetradecanoyl]-α-D-glucopyranose 1,4′-bisphosphate] |  |  | only a partial response at the highest concentration tested | formation of IL-6, RANTES, and IL-1β (RAW 264.7 γNO(−) cells; [1]): no formation; production of TNF-α, IFN-β, and IP-10 (RAW 264.7 γNO(−) cells; [1]): induced the production
3 | CCCCCCCCCCCCCCCC(=O)O[C@H](CCCCCCCCCCC)CC(=O)N[C@@H]1[C@@H](OC(=O)C[C@H](O)CCCCCCCCC)[C@H](O)[C@@H](CO[C@@H]2O[C@H](CO)[C@@H](O)[C@H](OC(=O)C[C@@H](CCCCCCCCC)OC(=O)CCCCCCCCCCC)[C@H]2NC(=O)C[C@@H](CCCCCCCCCCC)OC(=O)CCCCCCCCCCC)O[C@@H]1O [Lipid A 5, 6-O-{2-Deoxy-3-O—[(R)-3-dodecanoyloxy-dodecanoyl]-2-[(R)-3-dodecanoyloxy-tetradecanoylamino]-β-D-glucopyranosyl}-2-deoxy-2-[(R)-3-hexadecanoyloxy-tetredecanoylamino]-3-O—[(R)-3-hydroxy-dodecanoyl]-α-D-glucopyranose] |  |  | inactive | 
4 | (3-Deoxy-α-D-manno-oct-2-ulopyranosyl)onate-(2->6)-3-O—[(R)-3-hydroxy-dodecanoyl]-2-deoxy-2-[(R)-3-dodecanoyloxy-tetradecanoyl]-(R)-D-glucopyranosyl-(1→6)-3-O—[(R)-3-hydroxy-dodecanoyl]-2-deoxy-2-[(R)-3-dodecanoyloxy-tetradecanoyl]-α-D-glucopyranose 1,4′-biphosphate [lipid A 53] | 0.2 | 0.092 |  | 
5 | Pam3CysSK4 [reference compound] |  |  |  | NF-κB activation, mouse TLR2 (mouse TLR2): able to activate; NF-κB activation, human TLR2 (human TLR2): able to activate
